Measurements taken from patent publication US9518041B2, “(+)-5-(3,4-difluorophenyl)-5-[(3-methyl-2-oxopyridin-1(2H)-yl)methyl]imidazolidine-2,4-dione and drug containing same” (KAKEN PHARMACEUTICAL CO., LTD., priority 2013, dated 2016).

Columns and labels:
[1] = molecular target: T1, human MMP-9 (Homo sapiens, UniProt P14780); assay: MMP-9 inhibition test; assay type: biochemical; settings: read-out: Inhibitory activity (IC50, nM) MMP-9
T1 construct: purchased Calbiochem 444231
Protocol: (§1) MMP inhibition tests can be carried out, for example, using a fluorescent synthetic substrate based on the methods described in Bickett et al. (D. Mark Bickett et al., Anal. Biochem., 1993, 212, 58-64) and Nagase et al. (H. Nagase et al., J. Biol. Chem., 1994, 269, 20952-20957). The method for each MMP inhibition test is shown below.
(§2) 90 μL (11 ng) of human MMP-9 (Calbiochem #444231) was mixed with 10 μL of 10 mM APMA, and activated by reacting at 37° C. for 2 hours. 10 μL of the resultant enzyme solution was diluted to 90 μL with an assay buffer A. The mixture was added to 90 μL of a 20 μM fluorescent substrate (Dnp-Pro-Cha-Gly-Cys(Me)-His-Ala-Lys(Nma)-NH2) (SEQ ID NO: 2) prepared with an assay buffer B, and reacted at 37° C. for 4 hours. Enzyme activity was then determined by measuring with a fluorescence intensity meter (Labsystems, Fluoroskan Ascent) at an excitation wavelength of 355 nm and a measurement wavelength of 460 nm.
(§3) From the enzyme activity in the presence or the absence of the test substance, the inhibition rate was determined, and the 50% inhibitiory concentration (IC50) of the test substance was calculated.

[2] = molecular target: T2, human MMP-13 (Homo sapiens, UniProt P45452); assay: MMP-13 inhibition test; assay type: biochemical; settings: read-out: Inhibitory activity (IC50, nM) MMP-13
T2 construct: purchased Calbiochem 444287
Protocol: as §1
as §2, with “(130” for “(11”, “MMP-13” for “MMP-9”, “#444287)” for “#444231)”, “1 hour.” for “2 hours.”
as §3

[3] = molecular target: T3, human MMP-17 (Homo sapiens, UniProt Q9ULZ9); assay: MMP-17 inhibition test; assay type: biochemical; settings: read-out: Inhibitory activity (IC50, nM) MMP-17
T3 sequence (Q9ULZ9 126-300 limits assumed): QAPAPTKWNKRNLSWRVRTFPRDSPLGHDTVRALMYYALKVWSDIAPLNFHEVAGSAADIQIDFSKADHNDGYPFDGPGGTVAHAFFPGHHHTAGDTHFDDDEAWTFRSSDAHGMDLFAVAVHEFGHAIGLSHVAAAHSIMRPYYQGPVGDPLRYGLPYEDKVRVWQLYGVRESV
Protocol: as §1
90 μL (5.8 ng) of human MMP-17 (Calbiochem #475940) prepared with an assay buffer A was added to 90 μL of a 20 μM fluorescent substrate (MOCAc-Pro-Leu-Gly-Leu-A2pr(Dnp)-Ala-Arg-NH2, Peptide Institute Inc., #3163-v) (SEQ ID NO: 3) prepared with an assay buffer B, and reacted at room temperature for 5 hours. Enzyme activity was then determined by measuring with a fluorescence intensity meter (Labsystems, Fluoroskan Ascent) at an excitation wavelength of 320 nm and a measurement wavelength of 405 nm.
From the enzyme activity in the presence or the absence of the test substance, the inhibition rate was determined, and the 50% inhibitory concentration (IC50) of the test substance was calculated.

[4] = tested on: auricular oedema induced by TPA; assay: Inhibition test of auricular oedema induced by single application of TPA in mouse; assay type: in vivo, BALB/c mice
Protocol: Auricular oedema was induced by applying 54 μmol/L TPA-acetone solution on both the inner and outer sides of the left ear of BALB/c mice (application volume of 54 μmol/L TPA-acetone solution is 10 μL for each side of the left ear (i.e. 1.08 nmol TPA/auricle)). For a non-induced group, acetone was similarly applied instead of the 54 μmol/L TPA-acetone solution. […] Auricle thickness was measured under ether anesthesia the day before TPA application and 6 hours after TPA application for evaluation of the auricular oedema inhibition effect of the test substance based on the increase in auricle thickness as an index.
The auricular oedema inhibition rate (%) of the test substance was calculated based on the following formula using (A) the average value of the increase in auricular thickness of the group administered with the test substance, (B) the average value of the increase in auricular thickness of the non-induced group, and (C) the average value of the increase in auricular thickness of the control group. […]
The auricular oedema inhibition rate (%) of etanercept was calculated based on the following formula using (B) the average value of the increase in auricular thickness of the non-induced group, (D) the average value of the increase in auricular thickness of the etanercept group, and (E) the average value of the increase in auricular thickness of the hIgG group. […]

T1 sequence (P14780 107-707 limits assumed): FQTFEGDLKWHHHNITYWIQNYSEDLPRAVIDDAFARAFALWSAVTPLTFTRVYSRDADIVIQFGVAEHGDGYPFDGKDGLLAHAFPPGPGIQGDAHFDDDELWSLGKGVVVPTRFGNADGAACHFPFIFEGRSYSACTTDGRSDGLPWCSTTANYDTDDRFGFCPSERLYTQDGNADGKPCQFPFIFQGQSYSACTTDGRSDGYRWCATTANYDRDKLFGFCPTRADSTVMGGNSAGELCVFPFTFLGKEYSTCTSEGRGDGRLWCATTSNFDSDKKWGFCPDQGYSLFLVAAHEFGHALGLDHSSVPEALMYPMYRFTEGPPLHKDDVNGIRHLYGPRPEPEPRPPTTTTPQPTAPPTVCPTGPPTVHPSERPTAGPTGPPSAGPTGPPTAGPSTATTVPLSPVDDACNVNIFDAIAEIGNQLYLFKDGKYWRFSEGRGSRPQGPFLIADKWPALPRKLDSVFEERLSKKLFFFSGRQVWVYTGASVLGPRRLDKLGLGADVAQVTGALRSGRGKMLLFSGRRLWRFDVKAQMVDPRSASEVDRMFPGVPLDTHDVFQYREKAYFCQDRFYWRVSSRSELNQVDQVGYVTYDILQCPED

## Cc1cccn(CC2(c3ccc(F)c(F)c3)NC(=O)NC2=O)c1=O (single isomer, unassigned; (+)) [(+)-5-(3,4-difluorophenyl)-5-[(3-methyl-2-oxopyridin-1(2H)-yl)methyl]imidazolidine-2,4-dione]
[1]
  IC50: > 10000 nM
[2]
  IC50: > 10000 nM
[3]
  IC50: > 10000 nM
[4]; BALB/c mice, topical 1 w/v % solution, 10 μL each side of left ear, 1 hour before TPA, auricle thickness 6 hours after TPA
  Auricular oedema inhibition rate (%): 62%
[4]; etanercept 1 mg/mouse intravenously as positive control
  Etanercept ratio (inhibition rate of test substance / inhibition rate of etanercept): 3.4
